From patent publication US11911386B2, “Methods of treating B-cell proliferative disorder” (BeiGene Switzerland GmbH, priority 2022, dated 2024)
Where “and” joins values, the source holds several entries; their conditions need not be identical. Equal entries are not always repeated. Where two headings read alike, the source gives them in different places.

C=CC(=O)N1CCC([C@@H]2CCNc3c(C(N)=O)c(-c4ccc(Oc5ccccc5)cc4)nn32)CC1 [zanubrutinib, (S)-7-(1-acryloylpiperidin-4-yl)-2-(4-phenoxyphenyl)-4,5,6,7-tetrahydropyrazolo[1,5-a]pyrimidine-3-carboxamide]
Opportunistic infection AESI, EAIR (During Coadministration): 0.67 per 100 person-months
Opportunistic infection AESI, patients (During Coadministration): 2.9%
Opportunistic infection SAEs, EAIR (During Coadministration): 0.50 per 100 person-months
Patients with at least 1 AESI (During Coadministration): 67 (48.6) n (%)
Petechiae (hemorrhage AESI) (During Coadministration): 0.7%
Platelet count decreased PT (During Coadministration): 2.2%
Platelet count decreased ≥Grade 3 (During Coadministration): 1.4%
Purpura (hemorrhage AESI) (During Coadministration): 0.0%
SAEs of opportunistic infections, patients (During Coadministration): 2.2% and 2.9%
Second primary malignancies AESI leading to dose interruption (During Coadministration): 1.4%
Second primary malignancies AESI ≥Grade 3, EAIR (During Coadministration): 0.33 per 100 person-months
Second primary malignancies AESI ≥Grade 3, patients (During Coadministration): 1.4%
Second primary malignancies AESI, EAIR (During Coadministration): 0.72 per 100 person-months
Second primary malignancies AESI, patients (During Coadministration): 2.9%
Sepsis (During Coadministration): 2.2%
Serious AESI (During Coadministration): 29 (21.0) n (%)
Serious atrial fibrillation and flutter AESI, EAIR (During Coadministration): 0.0 per 100 person-months
Serious atrial fibrillation and flutter AESI, patients (During Coadministration): 0.0%
Serious external ear neoplasm malignant (During Coadministration): 1 (0.7%) n (%)
Serious haematuria (During Coadministration): 0 (0.0%) n (%)
Serious haematuria (major hemorrhage) (During Coadministration): 0 (0.0%) n (%)
Serious hemorrhage AESI, EAIR (During Coadministration): 0.0 per 100 person-months
Serious hemorrhage AESI, patients (During Coadministration): 0.0%
Serious hypertension AESI, EAIR (During Coadministration): 0.16 per 100 person-months
Serious infection AESI, EAIR (During Coadministration): 6.16 per 100 person-months
Serious major hemorrhage AESI, EAIR (During Coadministration): 0.0 per 100 person-months
Serious major hemorrhage AESI, patients (During Coadministration): 0.0%
Serious neutropenia AESI, EAIR (During Coadministration): 1.11 per 100 person-months
Serious neutropenia AESI, patients (During Coadministration): 4.3%
Serious neutropenic sepsis (During Coadministration): 0%
Serious neutrophil count decreased (During Coadministration): 0.7%
Serious second primary malignancies AESI, EAIR (During Coadministration): 0.33 per 100 person-months
Serious second primary malignancies AESI, patients (During Coadministration): 1.4%
Serious squamous cell carcinoma of skin (During Coadministration): 0 (0.0%) n (%)
Sinusitis (During Coadministration): 2.9%
Skin cancer AESI ≥Grade 3, EAIR (During Coadministration): 0.00 per 100 person-months
Skin cancer AESI, EAIR (During Coadministration): 0.17 per 100 person-months
Skin cancer AESI, patients (During Coadministration): 0.7%
Skin cancer SAE, EAIR (During Coadministration): 0.00 per 100 person-months
Squamous cell carcinoma of skin (During Coadministration): 0.7%
Squamous cell carcinoma of skin ≥Grade 3 (During Coadministration): 0 (0.0%) n (%)
Thrombocytopenia AESI leading to dose interruption (During Coadministration): 1.4%
Thrombocytopenia AESI ≥Grade 3, EAIR (During Coadministration): 0.83 per 100 person-months
Thrombocytopenia AESI ≥Grade 3, patients (During Coadministration): 3.6%
Thrombocytopenia AESI, EAIR (During Coadministration): 1.52 per 100 person-months
Thrombocytopenia AESI, patients (During Coadministration): 6.5%
Thrombocytopenia PT (During Coadministration): 4.3%
Viral upper respiratory tract infection (During Coadministration): 2.2%
Anemia AESI ≥Grade 3, EAIR (Prior to Coadministration): 0.54 per 100 person-months
Anemia AESI, EAIR (Prior to Coadministration): 1.07 per 100 person-months
Atrial fibrillation PT (Prior to Coadministration): 1.7%
Atrial fibrillation and flutter AESI Grade ≥3, EAIR (Prior to Coadministration): 0.13 per 100 person-months
Atrial fibrillation and flutter AESI Grade ≥3, patients (Prior to Coadministration): 1.7%
Atrial fibrillation and flutter AESI, EAIR (Prior to Coadministration): 0.13 per 100 person-months
Atrial fibrillation and flutter AESI, patients (Prior to Coadministration): 1.7%
Atrial flutter PT (Prior to Coadministration): 0.0%
Basal cell carcinoma (Prior to Coadministration): 4.2%
Basal cell carcinoma leading to dose interruption (Prior to Coadministration): 2 (1.7%) n (%)
Basal cell carcinoma ≥Grade 3 (Prior to Coadministration): 2 (1.7%) n (%)
Bronchopulmonary aspergillosis (Prior to Coadministration): 3 (2.5%) n (%)
External ear neoplasm malignant leading to dose interruption (Prior to Coadministration): 2 (1.7%) n (%)
Febrile neutropenia PT (Prior to Coadministration): 1.7%
Grade 3 or higher AESI (Prior to Coadministration): 69 (58.0) n (%)
Haematuria (hemorrhage AESI) (Prior to Coadministration): 8.4%
Haematuria (major hemorrhage) (Prior to Coadministration): 2 (1.7%) n (%)
Haematuria (major hemorrhage) ≥Grade 3 (Prior to Coadministration): 2 (1.7%) n (%)
Haematuria leading to dose interruption (Prior to Coadministration): 2 (1.7%) n (%)
Haematuria ≥Grade 3 (Prior to Coadministration): 2 (1.7%) n (%)
Hemorrhage AESI leading to dose interruption (Prior to Coadministration): 3.4%
Hemorrhage AESI leading to dose reduction (Prior to Coadministration): 1.7%
Hemorrhage AESI ≥Grade 3, EAIR (Prior to Coadministration): 0.19 per 100 person-months
Hemorrhage AESI ≥Grade 3, patients (Prior to Coadministration): 2.5%
Hemorrhage AESI, EAIR (Prior to Coadministration): 9.70 per 100 person-months
Hemorrhage AESI, patients (Prior to Coadministration): 55.5%
Hepatitis B reactivation AESI (Prior to Coadministration): 2.5%
Hepatitis B reactivation AESI ≥Grade 3 (Prior to Coadministration): 2 (1.7%) n (%)
Hypertension AESI ≥Grade 3, EAIR (Prior to Coadministration): 0.56 per 100 person-months
Hypertension AESI ≥Grade 3, patients (Prior to Coadministration): 6.7%
Hypertension AESI, EAIR (Prior to Coadministration): 1.13 per 100 person-months
Hypertension AESI, patients (Prior to Coadministration): 12.6%
Infection AESI leading to death (Prior to Coadministration): 0.8%
Infection AESI leading to dose reduction (Prior to Coadministration): 7.6%
Infection AESI leading to treatment discontinuation (Prior to Coadministration): 1.7%
Infection AESI ≥Grade 3, EAIR (Prior to Coadministration): 3.82 per 100 person-months
Infection AESI, EAIR (Prior to Coadministration): 18.08 per 100 person-months
Major hemorrhage AESI leading to dose interruption (Prior to Coadministration): 1.7%
Major hemorrhage AESI ≥Grade 3, EAIR (Prior to Coadministration): 0.19 per 100 person-months
Major hemorrhage AESI ≥Grade 3, patients (Prior to Coadministration): 2.5%
Major hemorrhage AESI, EAIR (Prior to Coadministration): 0.25 per 100 person-months
Major hemorrhage AESI, patients (Prior to Coadministration): 3.4%
Malignant melanoma (Prior to Coadministration): 2 (1.7%) n (%)
Meningitis cryptococcal (Prior to Coadministration): 2 (1.7%) n (%)
Neutropenia AESI leading to dose reduction (Prior to Coadministration): 2.5%
Neutropenia AESI leading to treatment interruption (Prior to Coadministration): 7.6%
Neutropenia AESI ≥Grade 3, EAIR (Prior to Coadministration): 1.74 per 100 person-months
Neutropenia AESI ≥Grade 3, patients (Prior to Coadministration): 20.2%
Neutropenia AESI, EAIR (Prior to Coadministration): 2.72 per 100 person-months
Neutropenia AESI, patients (Prior to Coadministration): 28.6%
Neutropenic sepsis PT (Prior to Coadministration): 0.8%
Neutropenic sepsis ≥Grade 3 (Prior to Coadministration): 0.8%
Neutrophil count decreased leading to dose reduction (Prior to Coadministration): 0.8%
Opportunistic infection AESI leading to dose reduction (Prior to Coadministration): 3.4%
Opportunistic infection AESI leading to treatment discontinuation (Prior to Coadministration): 0.8%
Opportunistic infection AESI ≥Grade 3, EAIR (Prior to Coadministration): 0.38 per 100 person-months
Opportunistic infection AESI ≥Grade 3, patients (Prior to Coadministration): 6 (5.0%) n (%)
Opportunistic infection AESI, EAIR (Prior to Coadministration): 0.64 per 100 person-months
Opportunistic infection AESI, patients (Prior to Coadministration): 8.4%
Opportunistic infection SAEs, EAIR (Prior to Coadministration): 0.38 per 100 person-months
Patients with at least 1 AESI (Prior to Coadministration): 115 (96.6) n (%)
Petechiae (hemorrhage AESI) (Prior to Coadministration): 5.9%
Platelet count decreased PT (Prior to Coadministration): 3.4%
Platelet count decreased ≥Grade 3 (Prior to Coadministration): 0.8%
Purpura (hemorrhage AESI) (Prior to Coadministration): 5.9%
SAEs of opportunistic infections, patients (Prior to Coadministration): 5.0% and 8.4%
Second primary malignancies AESI leading to dose interruption (Prior to Coadministration): 4.2%
Second primary malignancies AESI ≥Grade 3, EAIR (Prior to Coadministration): 0.32 per 100 person-months
Second primary malignancies AESI ≥Grade 3, patients (Prior to Coadministration): 4.2%
Second primary malignancies AESI, EAIR (Prior to Coadministration): 1.05 per 100 person-months
Second primary malignancies AESI, patients (Prior to Coadministration): 12.6%
Serious AESI (Prior to Coadministration): 53 (44.5) n (%)
Serious anemia AESI, EAIR (Prior to Coadministration): 0.06 per 100 person-months
Serious atrial fibrillation and flutter AESI, EAIR (Prior to Coadministration): 0.06 per 100 person-months
Serious atrial fibrillation and flutter AESI, patients (Prior to Coadministration): 0.8%
Serious external ear neoplasm malignant (Prior to Coadministration): 2 (1.7%) n (%)
Serious haematuria (Prior to Coadministration): 2 (1.7%) n (%)
Serious haematuria (major hemorrhage) (Prior to Coadministration): 2 (1.7%) n (%)
Serious hemorrhage AESI, EAIR (Prior to Coadministration): 0.25 per 100 person-months
Serious hemorrhage AESI, patients (Prior to Coadministration): 3.4%
Serious infection AESI, EAIR (Prior to Coadministration): 3.31 per 100 person-months
Serious major hemorrhage AESI, EAIR (Prior to Coadministration): 0.25 per 100 person-months
Serious major hemorrhage AESI, patients (Prior to Coadministration): 3.4%
Serious neutropenia AESI, EAIR (Prior to Coadministration): 0.26 per 100 person-months
Serious neutropenia AESI, patients (Prior to Coadministration): 3.4%
Serious neutropenic sepsis (Prior to Coadministration): 0.8%
Serious neutrophil count decreased (Prior to Coadministration): 0.0%
Serious second primary malignancies AESI, EAIR (Prior to Coadministration): 0.39 per 100 person-months
Serious second primary malignancies AESI, patients (Prior to Coadministration): 5.0%
Serious squamous cell carcinoma of skin (Prior to Coadministration): 2 (1.7%) n (%)
Skin cancer AESI ≥Grade 3, EAIR (Prior to Coadministration): 0.26 per 100 person-months
Skin cancer AESI, EAIR (Prior to Coadministration): 0.69 per 100 person-months
Skin cancer AESI, patients (Prior to Coadministration): 8.4%
Skin cancer SAE, EAIR (Prior to Coadministration): 0.26 per 100 person-months
Squamous cell carcinoma of skin (Prior to Coadministration): 5.0%
Squamous cell carcinoma of skin ≥Grade 3 (Prior to Coadministration): 2 (1.7%) n (%)
Thrombocytopenia AESI leading to dose interruption (Prior to Coadministration): 0.8%
Thrombocytopenia AESI ≥Grade 3, EAIR (Prior to Coadministration): 0.26 per 100 person-months
Thrombocytopenia AESI ≥Grade 3, patients (Prior to Coadministration): 3.4%
Thrombocytopenia AESI, EAIR (Prior to Coadministration): 0.79 per 100 person-months
Thrombocytopenia AESI, patients (Prior to Coadministration): 9.2%
Thrombocytopenia PT (Prior to Coadministration): 6.7%
Tumor lysis syndrome AESI (all study periods): No AESI of tumor lysis syndrome were reported
